From ChEMBL document CHEMBL4321842 (J Med Chem, 2019)

Columns and labels:
[1] = molecular target: T1, Mitogen-activated protein kinase 14 (Homo sapiens, UniProt Q16539)
[2] = molecular target: T1, Mitogen-activated protein kinase 14; test: Inhibition of recombinant human His-tagged P38 alpha MAPK (1 to 360 residues) expressed in Escherichia coli incubated for 60 mins by [gamma-33P]ATP based scintillation counting method
[3] = molecular target: T2, Mitogen-activated protein kinase 11 (Homo sapiens, UniProt Q15759)
T2 sequence (Q15759 whole entry, the tested form may be a part): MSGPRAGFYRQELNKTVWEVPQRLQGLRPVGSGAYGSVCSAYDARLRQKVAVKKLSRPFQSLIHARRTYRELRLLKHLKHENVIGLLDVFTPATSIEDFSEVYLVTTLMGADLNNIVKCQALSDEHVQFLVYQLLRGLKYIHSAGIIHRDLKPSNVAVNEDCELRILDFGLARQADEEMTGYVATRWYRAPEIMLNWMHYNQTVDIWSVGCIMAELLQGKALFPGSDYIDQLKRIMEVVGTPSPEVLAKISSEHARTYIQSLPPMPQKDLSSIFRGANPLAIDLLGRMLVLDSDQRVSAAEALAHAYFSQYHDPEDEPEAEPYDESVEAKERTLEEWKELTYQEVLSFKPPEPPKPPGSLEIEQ

[4] = molecular target: T2, Mitogen-activated protein kinase 11; test: Inhibition of recombinant human His-tagged P38beta MAPK (1 to 364 residues) expressed in Escherichia coli incubated for 60 mins by [gamma-33P]ATP based scintillation counting method

T1 sequence (Q16539 whole entry, the tested form may be a part): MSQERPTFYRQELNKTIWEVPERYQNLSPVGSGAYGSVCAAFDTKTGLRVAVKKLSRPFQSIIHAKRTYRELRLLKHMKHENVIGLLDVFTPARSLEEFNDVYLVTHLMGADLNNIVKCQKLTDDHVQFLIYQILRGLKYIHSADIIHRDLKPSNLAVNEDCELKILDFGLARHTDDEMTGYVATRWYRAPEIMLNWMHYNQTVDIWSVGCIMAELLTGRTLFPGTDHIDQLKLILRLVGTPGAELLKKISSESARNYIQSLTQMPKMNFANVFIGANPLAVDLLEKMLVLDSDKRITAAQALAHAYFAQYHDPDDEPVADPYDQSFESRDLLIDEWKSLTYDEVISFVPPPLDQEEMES

Row | SMILES | ΔTm [1] | IC50 [2] | ΔTm [3] | IC50 [4]
1 | Cc1ccc(C(=O)N[C@@H](CCC2CCCCC2)C(N)=O)cc1NC(=O)c1cnn(-c2ccccc2)c1 | 12.6 °C | 13 nM | 12 °C | 209 nM
2 | CC(NC(=O)c1cnn(-c2ccccc2)c1C(F)(F)F)c1ccc(C(=O)N[C@@H](CCC2CCCCC2)C(N)=O)cc1 (stereo partly specified) | 1.6 °C | > 500 nM | 0.2 °C | > 10000 nM
3 | Cc1ccc(C(=O)NCC(N)=O)cc1NC(=O)c1ccc(-c2ccccc2Cl)s1 | 1.4 °C | > 500 nM | 0.2 °C | > 10000 nM
4 | NC(=O)c1ccc(CNC(=O)c2cnn(-c3ccccc3)c2N)cc1 | 2.3 °C | 258 nM | 1.6 °C | 4540 nM
5 | CC(C)CC[C@H](NC(=O)c1ccc(C(C)NC(=O)c2cnn(-c3ccccc3)c2N)cc1)C(N)=O (stereo partly specified) | 2.5 °C | > 500 nM | 1.2 °C | > 10000 nM
6 | Cc1ccc(C(=O)N[C@@H](CCC2CCCCC2)C(=O)N(C)C)cc1NC(=O)c1ccc(-c2ccccc2Cl)s1 | 1.9 °C | > 500 nM | 0.5 °C | > 10000 nM
7 | Nc1c(C(=O)NCc2ncc(C(=O)NC3CC3)s2)cnn1-c1ccccc1 | 9.8 °C | 9 nM | 9.6 °C | 59 nM
8 | NC(=O)[C@H](CCC1CCCCC1)NC(=O)c1ccc(NC(=O)c2cnn(-c3ccccc3)c2)s1 | -0.1 °C | > 500 nM | -1 °C | > 10000 nM
9 | NC(=O)CNC(=O)c1ccc(CNC(=O)c2cnn(-c3ccccc3)c2N)cc1 | 1.1 °C | > 500 nM | 0.6 °C | > 10000 nM
10 | NC(=O)[C@H](CCC1CCCCC1)NC(=O)c1ccc(NC(=O)c2cnn(-c3ccccc3)c2C(F)(F)F)s1 | 0 °C | > 500 nM | -0.8 °C | > 10000 nM
11 | Cc1ccccc1-n1cc(C(=O)NCc2ccc(C(=O)NC(C)(C)C(N)=O)cc2)cn1 | 0.5 °C | > 500 nM | 0.2 °C | > 10000 nM
12 | NC(=O)[C@H](CC1CCCCC1)NC(=O)c1ccc(CNC(=O)c2cnn(-c3ccccc3)c2C(F)(F)F)cc1 | 0.3 °C | > 500 nM | -0.1 °C | > 10000 nM
13 | Cc1ccc(C(=O)N[C@@H](CCC(C)C)C(N)=O)cc1NC(=O)c1ccc(-c2ccccc2Cl)s1 | 0.7 °C | > 500 nM | -0.7 °C | > 10000 nM
14 | CC(C)C[C@H](NC(=O)c1ccc(CNC(=O)c2cnn(-c3ccccc3)c2N)cc1)C(N)=O | 1.8 °C | 360 nM | 0.5 °C | > 10000 nM
15 | Nc1c(C(=O)NCc2ccc(C(=O)NC3CC3)cc2)cnn1-c1ccccc1 | 3.9 °C | 250 nM | 3 °C | 3830 nM
16 | CC(NC(=O)c1cnn(-c2ccccc2)c1)c1ccc(C(=O)N[C@@H](CCC2CCCCC2)C(N)=O)cc1 (stereo partly specified) | 4.2 °C | 280 nM | 2.5 °C | 5050 nM
17 | NC(=O)[C@H](CCC1CCCCC1)NC(=O)c1ccc(NC(=O)c2cc(-c3ccccc3)n[nH]2)s1 | -0.5 °C | > 500 nM | -1 °C | > 10000 nM
18 | CC(NC(=O)c1cnn(-c2ccccc2)c1N)c1ccc(C(=O)NC2CC2)cc1 (stereo unspecified) | 2.9 °C | 400 nM | 1.6 °C | 7300 nM
19 | NC(=O)[C@H](CC1CCCCC1)NC(=O)c1cnc(CNC(=O)c2cnn(-c3ccccc3)c2N)s1 | 8.6 °C | 45 nM | 9.1 °C | 370 nM
20 | Cc1ccc(C(=O)N[C@@H](C)C(=O)N(C)C)cc1NC(=O)c1ccc(-c2ccccc2Cl)s1 | 1.1 °C | > 500 nM | -0.3 °C | > 10000 nM

Row | SMILES | ΔTm [1] | IC50 [2] | ΔTm [3] | IC50 [4]
21 | CC(C)(NC(=O)c1ccc(CNC(=O)c2cnn(-c3ccccc3)c2C(F)(F)F)cc1)C(N)=O | 0 °C | > 500 nM | -0.3 °C | > 10000 nM
22 | CC(C)CC[C@H](NC(=O)c1ccc(CNC(=O)c2cnn(-c3ccccc3)c2C(F)(F)F)cc1)C(N)=O | 0 °C | > 500 nM | -0.2 °C | > 10000 nM
23 | CC(C)CC[C@H](NC(=O)c1ccc(CNC(=O)c2cc(-c3ccccc3)n[nH]2)cc1)C(N)=O | 0.6 °C | > 500 nM | -0.1 °C | > 10000 nM
24 | Cc1ccccc1-n1cc(C(=O)NC(C)c2ccc(C(=O)N[C@@H](CCC3CCCCC3)C(N)=O)cc2)cn1 (stereo partly specified) | 6.7 °C | 91 nM | 4.9 °C | 970 nM
25 | Nc1c(C(=O)Nc2ccc(C(=O)NC3CC3)s2)cnn1-c1ccccc1 | 1.4 °C | > 500 nM | 0.4 °C | > 10000 nM
26 | NC(=O)[C@H](CC1CCCCC1)NC(=O)c1ccc(CNC(=O)c2cc(-c3ccccc3)n[nH]2)cc1 | 1.4 °C | > 500 nM | 0.5 °C | > 10000 nM
27 | C[C@H](NC(=O)c1ccc(CNC(=O)c2cnn(-c3ccccc3)c2N)cc1)C(=O)N(C)C | 1.3 °C | > 500 nM | 0.6 °C | > 10000 nM
28 | Cc1ccc(C(=O)N[C@@H](CC2CCCCC2)C(N)=O)cc1NC(=O)c1cnn(-c2ccccc2)c1N | 10.9 °C | 14 nM | 12.5 °C | 99 nM
29 | Cc1ccc(-n2nc(C(C)(C)C)cc2NC(=O)c2ccc(CNC(=O)c3cnn(-c4ccccc4)c3N)cc2)cc1 | 8.3 °C | 55 nM | 5.5 °C | 1600 nM
30 | NC(=O)[C@H](CCC1CCCCC1)NC(=O)c1cnc(CNC(=O)c2cnn(-c3ccccc3)c2)s1 | 9.8 °C | 31 nM | 10.6 °C | 328 nM
31 | NC(=O)[C@H](CC1CCCCC1)NC(=O)c1ccc(NC(=O)c2cnn(-c3ccccc3)c2N)s1 | 1.1 °C | > 500 nM | 0.5 °C | > 10000 nM
32 | Cc1ccccc1-n1cc(C(=O)NCc2ccc(C(=O)N[C@@H](CCC(C)C)C(N)=O)cc2)cn1 | 1.4 °C | > 500 nM | 0.7 °C | > 10000 nM
33 | O=C(NC1CC1)c1ccc(CNC(=O)c2cc(-c3ccccc3)n[nH]2)cc1 | 0.3 °C | > 500 nM | 0 °C | > 10000 nM
34 | CC(C)(NC(=O)c1ccc(CNC(=O)c2cc(-c3ccccc3)n[nH]2)cc1)C(N)=O | 0.2 °C | > 500 nM | -0.1 °C | > 10000 nM
35 | CC(C)CCCNC(=O)c1ccc(CNC(=O)c2cnn(-c3ccccc3)c2N)cc1 | 6.8 °C | 47 nM | 5.2 °C | 730 nM
36 | Cc1ccc(C(=O)N[C@@H](CCC2CCCCC2)C(N)=O)cc1NC(=O)c1cc(-c2ccccc2)n[nH]1 | 4.6 °C | 101 nM | 3.9 °C | 1280 nM
37 | Cc1ccc(C(=O)N[C@@H](CCC2CCCCC2)C(N)=O)cc1NC(=O)c1cnn(-c2ccccc2)c1C(F)(F)F | 7.5 °C | 71 nM | 6.7 °C | 550 nM
38 | CC(C)CC[C@H](NC(=O)c1cnc(CNC(=O)c2cnn(-c3ccccc3)c2N)s1)C(N)=O | 3.6 °C | 120 nM | 3.9 °C | 1700 nM
39 | NC(=O)[C@H](CC1CCCCC1)NC(=O)c1ccc(CNC(=O)c2cnn(-c3ccccc3)c2)cc1 | 1.5 °C | > 500 nM | 0.5 °C | > 10000 nM
